Reference: a melting point compilation (Tetko et al.; mined from patent text by program, amines drawn as free bases though some values may be those of a salt)

For COc1cccc(C(F)(F)F)c1C(=O)O, which melting point is on record?
The melting point was 129 to 130 °C.

With CC(C)(C)c1ccc2c(c1)OCC(NNc1ncnc3c1ncn3C1OC(CO)C(O)C1O)C2 (stereo unspecified) as the compound, how does the melting point read?
The melting point was 88 to 90 °C.

Which melting point does the source give for COCC(=O)C1CCC2C3CCC4CC(OC(C)=O)CCC4(C)C3C(=O)CC12C (stereo unspecified) here?
Its melting point is 93 °C.

With CCc1n[nH]c(CC)c1CCCCCCOc1ccc(O)cc1Cl as the compound, how does the melting point read?
The melting point was 109 to 111 °C.

Which melting point does the source give for CCOCc1nc2cnc3cc(OCCNC(=O)OC(C)(C)C)ccc3c2n1CC1COC(C)(C)O1 (stereo unspecified) here?
Its melting point is 152 to 153 °C.

Which melting point does the source give for Nc1cc(F)c(Sc2ccc(C(F)(F)F)cc2Cl)cc1F here?
Its melting point is 95.9 °C.

With CCCc1c(O)cc(O)c(C(=O)CCc2ccc(O)cc2)c1O as the compound, how does the melting point read?
Its melting point is 216 to 218 °C.

Which melting point does the source give for CS(=O)c1ncc2n1-c1ccc(Cl)cc1C(c1ccccc1F)=NC2 (stereo unspecified) here?
Its melting point is 95 to 110 °C.

For Nc1c(CC(=O)O)cccc1Oc1ccccc1F, which melting point is on record?
The melting point was 122 to 123 °C.

Which melting point does the source give for N[C@H](CCC(=O)N1[C@H](C(=O)O)C[C@@H]2CCCC[C@@H]21)C(=O)O here?
Its melting point is 191 to 192 °C.

With CN1CCN(c2ccccc2C=C2CCN(c3ccc(Cl)c(Cl)c3)C2=O)CC1 as the compound, how does the melting point read?
The melting point was 177 to 179 °C.

With O=C(O)CCCCCCCCNS(=O)(=O)c1cccc(Cl)c1 as the compound, how does the melting point read?
Its melting point is 112 to 113 °C.

With NC(=O)N(O)Cc1cccc(OCc2coc(-c3ccc(F)cc3)n2)c1 as the compound, how does the melting point read?
Its melting point is 89 to 91 °C.

With Cc1cc(I)cc2c1oc(=O)n2C as the compound, how does the melting point read?
Its melting point is 100 to 101 °C.

With CCc1cccc(C)c1COc1cc(C(=O)OC)cc2c1nc(C)n2C as the compound, how does the melting point read?
The melting point was 157 °C.

For Cn1cc(C2=C(c3cc[nH]c3)C(=O)NC2=O)c2ccccc21, which melting point is on record?
The melting point was 240 to 241 °C.

With COc1cc(C#N)cc2cc(CO)oc12 as the compound, how does the melting point read?
Its melting point is 149 to 150 °C.

Which melting point does the source give for Cc1cc(C)cc(N2C(=O)NC(C)(C3CC3)C2=O)c1 (stereo unspecified) here?
The melting point was 121 °C.

With N#Cc1nn(-c2c(Cl)cc(C(F)(F)F)cc2Cl)cc1-c1cc(Br)no1 as the compound, how does the melting point read?
The melting point was 145 °C.

With CCOc1ccc(C2(C(=O)O)CCC2)cc1 as the compound, how does the melting point read?
Its melting point is 90 to 91 °C.

For CCc1nn(C2CCCC2)c2cc(C(=O)OC)ccc12, which melting point is on record?
The melting point was 106 to 109 °C.

For CCCCNC(=O)N(C)c1cccc(-c2ccc(C=C(OC)C(=O)O)cc2OCCCC)c1, which melting point is on record?
Its melting point is 106 °C.

With O=c1[nH]c2cc(Cl)ccc2c(=O)n1Cc1ccc(Br)cc1F as the compound, how does the melting point read?
The melting point was 288 to 289 °C.

Which melting point does the source give for Cc1cc(C)c2ncc(NC(=O)C3(C)CCc4c(C)c(O)c(C)c(C)c4O3)c(-c3ccccc3Cl)c2c1 (stereo unspecified) here?
The melting point was 222 to 224 °C.

For Cc1ccc(S(=O)(=O)Oc2ccc(C=O)cc2)cc1, which melting point is on record?
Its melting point is 70 to 72 °C.

Which melting point does the source give for CN(C)CC(C)(C)C(NC(=O)c1ccc(Cl)cc1)NC(=NC#N)Nc1cccnc1 (stereo unspecified) here?
The melting point was 101 to 103 °C.

For C#CCc1c(C)nc(N)[nH]c1=O, which melting point is on record?
Its melting point is 245 to 249 °C.

For O=C1c2cccnc2C(=O)N1Cc1ccccc1, which melting point is on record?
The melting point was 163 to 165 °C.

For CC(C)=CCc1c(O)ccc(C(=O)C=Cc2ccc(O)cc2)c1O, which melting point is on record?
The melting point was 75 to 76 °C.

For O=C(N[C@H]1CC[C@H](CCN2CCN(c3nccc4c3OCC4)CC2)CC1)c1ccc(-n2cccc2)cc1, which melting point is on record?
The melting point was 236 °C.

Which melting point does the source give for Clc1cnn(-c2ccc(CBr)c(Cl)c2)c1 here?
The melting point was 77 to 78 °C.

With COC(=O)Cc1ccc(OS(=O)(=O)C(F)(F)F)c([N+](=O)[O-])c1 as the compound, how does the melting point read?
The melting point was 44 to 45 °C.

Which melting point does the source give for CSc1ccc(N)c(C(=O)O)c1 here?
Its melting point is 145 to 150 °C.

For C[C@]1(CN2CCN(c3cc(-c4ccccc4)nc(-c4ccccc4)n3)CC2)Cn2cc([N+](=O)[O-])nc2O1, which melting point is on record?
Its melting point is 202 to 205 °C.

Which melting point does the source give for CC(C)(C)NC(=O)[C@@H]1C[C@H](Cl)CN1C(=O)[C@@H](O)[C@H](Cc1ccccc1)NC(=O)[C@H](CC(N)=O)NC(=O)OC(C)(C)C here?
The melting point was 126 to 132 °C.

With CC(C)c1nn(-c2c(Cl)cc(C(F)(F)F)cc2Cl)c(Cl)c1-c1nc(C#N)c(C#N)[nH]1 as the compound, how does the melting point read?
The melting point was 96 to 99 °C.

Which melting point does the source give for COC(=O)c1cc2c(cn1)[nH]c1ccc(Oc3ccc([N+](=O)[O-])cn3)cc12 here?
The melting point was 150 to 155 °C.

With Cc1c(NC(=O)CCCC(=O)c2ccc(Cl)cc2)ccc2cc(CN3CCCC3)cnc12 as the compound, how does the melting point read?
The melting point was 173 to 174 °C.

With Cc1c(Br)ccc([N+](=O)[O-])c1C#N as the compound, how does the melting point read?
The melting point was 116 to 118 °C.

Which melting point does the source give for CS(=O)(=O)Nc1cccc(Nc2nc(NCC(O)CO)c3nc[nH]c3n2)c1 (stereo unspecified) here?
Its melting point is 164 to 168 °C.

For CCOc1cc2nc[nH]c(=O)c2cc1OCC, which melting point is on record?
Its melting point is 255 to 257 °C.

With O=C(NNC(=O)c1ccc([N+](=O)[O-])cc1)c1ccccc1 as the compound, how does the melting point read?
The melting point was 254 to 256 °C.

Which melting point does the source give for O=C(NC(=O)c1c(Cl)cccc1Cl)Nc1ccc(OC(F)(F)F)cc1 here?
The melting point was 202 °C.

Which melting point does the source give for O=C(O)Cc1ccc2c(c1)C(=O)Cc1ccccc1O2 here?
Its melting point is 156 to 157 °C.

Which melting point does the source give for Cc1[nH]c(=O)c2c(ccc3nc(Nc4c(Cl)cccc4Cl)[nH]c32)c1C here?
Its melting point is greater than 300 °C.

Which melting point does the source give for CC1(C)COC(=N)N1c1nc(-c2ccc(C#N)cc2)cs1 here?
Its melting point is 158 to 161 °C.

Which melting point does the source give for COCC(=O)Nc1ccc(-c2ccncc2)cc1 here?
The melting point was 177 to 178 °C.

With Cc1cccc(S(=O)(=O)n2ccc(Br)c2)c1C#N as the compound, how does the melting point read?
Its melting point is 98 to 100 °C.

For CC1(C)C(=O)Nc2ccc(-c3cccc(C#N)c3)cc21, which melting point is on record?
Its melting point is 200 to 202 °C.

For CCSc1cc(C)nc(SCC)c1NC(=O)CCCCCSc1nc2ccccc2[nH]1, which melting point is on record?
The melting point was 139 to 142 °C.

For O=S1(=O)NCN(C2CC2)c2ccc(Br)cc21, which melting point is on record?
The melting point was 178 to 179 °C.
